Legend:
[1] = tested on: HCT-116 cells in SCID mice; assay: In vivo therapeutic trials; conditions: for time taken for tumor volume to reach 4-times the initial volume: control 7 days
Protocol: For the in vivo studies HCT-116 cells in SCID mice will be used. Individual mouse body weights for each experiment are within 5 g and all mice are over 17 g at the start of therapy. The mice are supplied food and water ad libidum. The animals are pooled, implanted subcutaneously with 10^7 cultured cells, and pooled again before distribution to treatment and control groups. Chemotherapy is started when the tumors reach a measurable size (about 150 mm^3). Initially, a 1 hour intravenous infusion will be given and the whole animal toxicity and therapeutic effect correlated with the pharmacology studies described above. Dosage levels are usually closely spaced (2-fold increments or 0.5 decrements). All drugs will be administered intravenously. Mice are killed when their tumors reach 1500 mm^3. Tumor weights are estimated from 2-dimensional caliper measurements done twice a week: Tumor Weight (mg)=(a×b^2)/2 • where a and b are the tumor length and width, respectively, in mm.
For this in vivo study with compound IV, 4 mice were in the control group, 4 in the 2 mg/ml and 1 in the 3 mg/ml groups.
The data were analyzed in terms of time taken for tumor volume to reach 4-times the initial volume. For control tumors this was 7 days, for the 2 mg/ml (0.5 mg/mouse; 25 mg/kg) dose, this was 10 days; and for the 3 mg/ml (0.75 mg/mouse; […]), this was 15 days. Thus, at the maximum tolerated dose there was a T/C of about 50%.

[2] = tested on: CFU-GM-h (colony-forming unit-granulocyte macrophage; normal hematopoietic); assay: Disk diffusion soft agar colony formation assay, CFU-GM-h; type: cell-based, human; conditions: 7.5 μg/ml
Excerpt: (§1) An in vitro cell-based assay was employed to identify solid tumor selectivity for compound IV. The differential cytotoxicity (Valeriote, F.; Grieshaber, C. K.; Media, J.; Pietraszkiewicz, H.; Hoffman, J.; Pan, M.; McLaughlin, S. J. Exp. Ther. Oncol. 2002, 2, 228-236) is expressed by observing a zone differential between any solid tumor cell (Colon38, ColonH116, Lung H125) and either leukemia cells (L1210 or CEM) or normal cells (CFU-GM). A sample is designated as “solid tumor selective” if (zone units of solid tumor—normal cells or leukemia cells) is greater than 250 units.
(§2) Colon 38 gives a good monodispersed cell suspension with mechanical disruption from a mouse tumor. […]
(§3) All of the human cancer cell lines are maintained in cell culture. […] The cells are passed through an 18-gauge needle twice and the monodispersed suspension counted. […]
(§4) A volume of 15 μl of each sample is dropped onto a 6.5 mm disk (Baxter filter disks). […] The plates are incubated for 7-10 days (depending upon the cell type) and examined by an inverted stereo-microscope (10×) for measurement of the zone of inhibition measured from the edge of the filter disk to the beginning of normal-sized colony formation. […] At some dilution, quantifiable cytotoxicity is invariably obtained.
(§5) • a Measured in zone units: 200 zone units=6 mm. […]

H116 (colon) = assay: Disk diffusion soft agar colony formation assay, H116; type: cell-based, human
Excerpt: as §1, §2, §3, §4, §5

CEM (leukemia) = assay: Disk diffusion soft agar colony formation assay, CEM; type: cell-based, human
Excerpt: as §1, §2, §3, §4, §5

Pharmacokinetics = type: in vivo, male SCID mice bearing H116 tumors; conditions: 18.5 mg/kg
Protocol: Compound IV was administered at 18.5 mg/kg to male SCID mice bearing H116 tumors.
By 24 h after drug administration, the concentration of compound IV is about 100 ng/ml.

[3] = mouse, in vivo
Protocol: In this dose calculation stage, the projected starting dose is based primarily on the solubility of the new compound. Potential doses are calculated on the basis of blood volume and total body water in mice.
The starting dose is selected on the basis of solubility of the compound in biologically compatible solvents, and the potency derived from in vitro studies.
To start, one normal SCID mouse is dosed intravenously with the solubilized/formulated compound via a one-hour infusion at a maximum dose of 20 mg/mL. The volume infused is 0.25 ml over the one-hour period. If the animal survives the dosing period, clinical signs are noted, and the animal is sacrificed at two hours post infusion and blood collected for subsequent analytical determinations. Two additional SCID mice are then similarly infused with the compound, one being sacrificed at the end of infusion and blood collected and analyzed for drug concentration. The third animal is housed for 2 weeks to ascertain survival, and then euthanized. During the two-week observation period, the animal will be monitored for clinical signs of distress and euthanized if moribund. The dosing data and pharmacologic information (estimate of half-life) from these three animals will guide the subsequent time-course study by approximating a tolerable dose and clearance of the agent. […]

[4] = tested on: CFU-GM-m (colony-forming unit-granulocyte macrophage; normal hematopoietic); assay: Disk diffusion soft agar colony formation assay, CFU-GM-m; type: cell-based, murine; conditions: 7.5 μg/ml
Excerpt: as §1, §2, §3, §4, §5

H116 human colon cells = assay: Clonogenic assay; type: cell-based
Protocol: Concentration- and time-survival studies will be carried out against HCT-116 cells. HCT-116 cells are seeded at 200 to 20,000 cells in 60 mm dishes. Drug is added to the medium (RPMI+10% FBS) at concentrations of 1 mg/ml and 10-fold dilutions thereof. […] The dishes are incubated for 7 days, media removed and the colonies stained with methylene blue. Colonies containing 50 cells or more are counted. The results are normalized to an untreated control. Plating efficiency for the untreated cells is about 90%. Repeat experiments are carried out to define the cell survival range between 100% and […]. Subsequently, a concentration is chosen that yields a survival of 10^−2 at 24 hr and time-survival studies carried out from 0 to 48 hr. Both concentration- and time-survival curves are constructed so that AUC values can be calculated. A comparison of tumor to normal provides a theoretical basis for determining whether a compound might be active in therapeutic trials in vivo.

H125 (lung) = assay: Disk diffusion soft agar colony formation assay, H125; type: cell-based, human
Excerpt: as §1, §2, §3, §4, §5

[5] = tested on: C38 (colon adenocarcinoma); assay: Disk diffusion soft agar colony formation assay, C38; type: cell-based, murine
Excerpt: as §1, §2, §3, §4, §5

[6] = tested on: L1210 (lymphocytic leukemia); assay: Disk diffusion soft agar colony formation assay, L1210; type: cell-based, murine; conditions: 7.5 μg/ml
Excerpt: as §1, §2, §3, §4, §5

## COc1cc(-c2ccnc3c2C(=O)c2ncc(C)cc2C3=O)ccc1OCCCN [Compound IV]
[1]; 2 mg/ml (0.5 mg/mouse; 25 mg/kg) dose
  time taken for tumor volume to reach 4-times the initial volume: 10 days
[1]; 3 mg/ml (0.75 mg/mouse; 38.5 mg/kg)
  time taken for tumor volume to reach 4-times the initial volume: 15 days
[1]; at the maximum tolerated dose
  T/C: about 50%
[2]
  zone of inhibition CFU-GMh: 650 zone units
H116 (colon); 1.9 μg/ml
  zone of inhibition H116: 350 zone units
H116 (colon); 7.5 μg/ml
  zone of inhibition H116: 800 zone units
CEM (leukemia); 1.9 μg/ml
  zone of inhibition CEM: 150 zone units
CEM (leukemia); 7.5 μg/ml
  zone of inhibition CEM: 550 zone units
Pharmacokinetics; over at least a 2-h period
  concentration attained in the plasma: approximately 1 μg/ml
  concentration attained in the tumor: approximately 1 μg/ml
Pharmacokinetics; male, SCID, mouse, in vivo, 24 h after drug administration, read-out: concentration of compound IV
  concentration at 24 h: ~100 ng/mL
[3]; SCID
  Lethal Dose: 50 mg/kg
[3]; 40 mg/kg
  observation after injection: survived but looked shaky right after injection
[4]
  zone of inhibition CFU-GMm: 650 zone units
H116 human colon cells; 7-day continuous exposure
  concentration at which a therapeutic effect would be obtained: ~0.2 µg/mL
H116 human colon cells; maintained for a 24 h period
  concentration at which a therapeutic effect would be obtained: ~10 µg/mL
H125 (lung); 1.9 μg/ml
  zone of inhibition H125: 600 zone units
H125 (lung); 7.5 μg/ml
  zone of inhibition H125: >1000 zone units
[5]; 1.9 μg/ml
  zone of inhibition C38: 100 zone units
[5]; 7.5 μg/ml
  zone of inhibition C38: 550 zone units
[6]
  zone of inhibition L1210: 500 zone units
